Entries after “also recorded” stand apart in the source; their conditions may differ. Blank lines part the entries; values can stand above or below the molecule they belong to. Where a SMILES comes first, the peptide text is derived from it. [ ]: non-standard residue; d: D form. The star is where a group is joined. Hexanoyl = CCCCCC(=O)*; Ahx = NCCCCCC(=O)O
How the values were obtained:
[1] = target: T1, HGF (Homo sapiens, UniProt P14210); experiment: HGF dimerization; assay type: biochemical; details: Dihexa, 30 minutes in the presence of heparin
T1 construct: purchased R&D Systems (Minneapolis, Minn.)
T1 sequence (P14210 32-728): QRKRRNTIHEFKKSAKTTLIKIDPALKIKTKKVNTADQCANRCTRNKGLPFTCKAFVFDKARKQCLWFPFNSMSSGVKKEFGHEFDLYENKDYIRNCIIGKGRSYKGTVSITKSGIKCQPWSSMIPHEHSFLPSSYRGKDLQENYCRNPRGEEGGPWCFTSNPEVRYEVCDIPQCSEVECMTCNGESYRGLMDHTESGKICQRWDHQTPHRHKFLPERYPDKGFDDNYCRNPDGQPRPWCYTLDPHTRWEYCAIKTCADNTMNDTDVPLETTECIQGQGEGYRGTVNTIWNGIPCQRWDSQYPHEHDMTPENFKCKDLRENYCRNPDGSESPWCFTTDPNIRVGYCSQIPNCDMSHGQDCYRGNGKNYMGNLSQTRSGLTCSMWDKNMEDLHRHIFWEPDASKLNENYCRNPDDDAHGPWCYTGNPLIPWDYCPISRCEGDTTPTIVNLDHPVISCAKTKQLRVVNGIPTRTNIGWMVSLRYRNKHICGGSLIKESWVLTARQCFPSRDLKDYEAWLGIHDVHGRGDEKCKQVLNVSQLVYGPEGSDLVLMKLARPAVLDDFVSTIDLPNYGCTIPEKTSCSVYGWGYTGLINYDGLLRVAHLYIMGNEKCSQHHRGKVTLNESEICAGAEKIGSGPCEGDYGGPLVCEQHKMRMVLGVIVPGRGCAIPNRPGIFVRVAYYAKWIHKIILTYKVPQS
Method: HGF dimerization was assessed using PAGE followed by silver staining (Kawas et al., 2011). Human HGF at a concentration of 0.08 ng/μl with or without 6-AH analogs was incubated with heparin at a final concentration of 5 μg/ml. Loading buffer was then added to each sample and the mixture separated by native PAGE using gradient Criterion XT precast gels (4-12% Bis-Tris; Biorad Laboratories, Hercules, Calif.). Next the gel was silver stained for the detection of the HGF monomers and dimers. Bands were quantitated from digital images using a UVP phosphoimager (Upland, Calif.).

[2] = system: hippocampal neurons; experiment: Spinogenesis in mRFP-β-actin transfected dissociated hippocampal neurons; assay type: cell-based, rat; details: 10^−12 M, acute 30 minute application on DIV12; vehicle 17.4
[3] = system: 6-OHDA rat; experiment: 6-OHDA lesioned rat, motor tests; assay type: in vivo
Method: FIG. 48. Dihexa restores performance in the rope hang test. After 2 weeks of 6-OHDA lesion, rats were treated with either 0.5 mg/kg or equivalent volumes of the vehicle ip.
FIG. 49. […] Baseline was calculated from 4 naïve animals to get the pre-op baseline for normal un-lesioned animals. 2 animals were lesioned with 6-OHDA in the right Hemisphere. 14 days post-op, treatment with vehicle started. 2 animals were lesioned with 6-OHDA in the right Hemisphere. 14 days post-op, treatment with Dihexa started. Animals were tested every other day. Dosing regimen (2 mg/kg by oral gavage/48 hrs).

[4] = Blood stability studies; assay type: in vitro ADME, rat; details: data not shown
[5] = system: c-Met receptor; experiment: c-Met phosphorylation in acute adult hippocampal slices; assay type: cell-based, rat; details: 30 minutes
Description: Adult Sprague-Dawley rats (250 g+) obtained from Harlan Laboratories (Ca, USA) were anesthetized with isofluorane (Vet One™, MWI, Meridian, Id., USA) and decapitated. The brain was rapidly removed and placed into ice-chilled artificial cerebrospinal fluid (aCSF) for approximately 30 s. Both hemispheres were separated by a mid-saggital cut and both hippocampi removed. Slices were sectioned cross- and length-wise (400 μm) to ensure penetrability of the drug, using a McIlwain tissue chopper (Brinkmann, Gomshall, UK) and transferred to a gassed (95% O2/5% CO2) incubation chamber containing aCSF for 90 minutes at room temperature. Slices were transferred to fresh tubes, aCSF was removed by careful suctioning and replaced with aCSF containing vehicle (aCSF+aCSF), 100 ng/ml with carrier free adult recombinant Hepatocyte Growth Factor (HGF) (R and D Systems, MN, USA) in aCSF, 10^−10 M Hinge (Harding lab), […], 10^−10 M Dihexa (Harding lab) in aCSF, 10^−12 M Dihexa in aCSF or 50 ng/ml HGF+10^−12 M Dihexa in aCSF for 30 minutes at 37° C. with gentle rocking. aCSF was removed and the slices were lysed using RIPA buffer (Upstate/Milipore, Billerica, Mass.) and inhibitor Cocktails I and II (Sigma, St. Louis, Mo.), sonicated on ice and clarified by centrifugation for 30 minutes, 13,000 rpm at 4° C. The supernatant was removed from the pellet and stored at −80° C. or processed immediately for gel electrophoresis.
Protein concentration of the samples was quantified using the BCA method (Pierce, Rockford, Ill.) following the manufacturers protocol. Samples were added to SDS-PAGE buffer and boiled for 10 min. before loading onto a 4-12% Bis-Tris pre-cast gel (Invitrogen, Carlsbad, Calif.) for electrophoresis. Proteins were transferred onto PVDF membranes (Bio Rad, Hercules, Calif.) and blocked with AquaBlock™ (New England Biolabs, Ipswich, Mass.) for 1 hour at room temperature (RT). Primary antibody incubation was done in AquaBlock™ with rabbit anti-Met and […] phospho-Met (Tyr1234/1235) (1:1000, Cell Signaling Technology, Danvers, Mass.) overnight at 4° C. Alternating washes were done with PBS and PBST. Secondary antibody (IRDye) (Rockland, Gilbertsville, Pa.) incubations were done in AquaBlock™ for one hour at RT. Blots were imaged using LI-COR Odyssey Infrared Imaging System (LI-COR Biosciences, Lincoln, Nebr.).

[6] = system: scopolamine treated rats; experiment: Morris water maze, scopolamine amnesia model; assay type: in vivo, rat
[7] = system: hippocampal neurons; experiment: Protection of hippocampal neurons from oxidative stress (H2O2); assay type: cell-based; details: 100 μM H2O2, 24 hrs, +/− HGF sub-threshold
Method: FIG. 47. […] Dissociated hippocampal neurons were treated with 100 μM H2O2 for 24 hrs+/−HGF at sub-threshold concentrations […] and or Dihexa at 2 different concentrations 10^−8M and 10^−8M. (+p<0.05, ++p<0.0I; Mean+/−SEM).

[8] = Brain uptake of 3H-dihexa after carotid infusion; assay type: in vivo, rat; details: 30 minutes after infusion
Method: FIG. 32. […] Rats fitted with a carotid cannula were anesthetized and infused with 0.5 ml of isotonic saline containing 10 μCi of ^3H-dihexa and 2 μCi ^14C-Inulin, a vascular marker. Thirty minutes after infusion the rats were decapitated, the brains removed, and various brain regions dissected. The tissues were then weighed and solubilized with NCS, an organic protein solubilizing agent, and 10 ml of scintillation was added. Samples were counted with a scintillation counter using two different windows to quantitate both ^3H and ^14C counts. ^3H/^14C ratios were determined so that blood derived dihexa contamination of tissues could be determined. […] The average ^3H/^14C for blood was 1687. Mean+/−S.E.M.: n=4.

[9] = Microsomal metabolism, rat liver microsomes; assay type: in vitro ADME; details: pooled rat liver microsomes, n=3
[10] = non-saturating doses: HGF 50 ng/ml, Dihexa 10^−12 M
[11] = saturating doses: HGF 100 ng/ml, Dihexa 10^−10 M
[12] = icv, scopolamine 70 nmol, Dihexa 300 pmol, Hinge 300 pmol, vehicle 43.0 s

Molecule: CCCCCC(=O)N[C@@H](Cc1ccc(O)cc1)C(=O)N[C@H](C(=O)NCCCCCC(N)=O)[C@@H](C)CC [Dihexa, N-hexanoic-Tyr-Ile-(6)-aminohexanoic amide] (Hexanoyl-Tyr-Ile-[Ahx]-NH2)
- inhibition of HGF dimerization [1]: blocks HGF dimerization
- mean spine numbers per 50 μm dendrite length [2]: 23.9 spines per 50 μm dendrite length
- performance in the rope hang test ([3]; 0.5 mg/kg ip, 2 weeks after 6-OHDA lesion): completely restored the performance
- motor deficits in the 6-OHDA rat ([3]; 2 mg/kg by oral gavage/48 hrs, from 14 days post-op): reverses motor deficits
- stable in the blood [4]: over 5 hours
- c-Met phosphorylation vs control (aCSF) [5, 10]: not statistically different from control treated slices
- c-Met phosphorylation vs control (aCSF) [5, 11]: increased c-Met phosphorylation
- latency to find the pedestal in the water maze (reversal of scopolamine deficits) ([6]; ICV 10 pmoles (low dose)): but not 10 pmoles
- latency to find the pedestal in the water maze (reversal of scopolamine deficits) ([6]; ICV 100 pmoles (high dose), daily, 8 days): reversed scopolamine-dependent learning deficits; also recorded: completely overcome the scopolamine deficits
- group latency to find the submerged platform ([6]; icv 0.1 nmol after scopolamine, days 5-8): significantly improved performance
- group latency to find the submerged platform ([6]; icv 1 nmol after scopolamine): different from the scopolamine group
- time in the target quadrant, day 9 probe trial ([6]; icv 1 nmol after scopolamine, vs vehicle control): not different
- mean latency to find the pedestal, final day of training [6, 12]: 62.3 s
- mean latency to find the pedestal, fourth day of training [6, 12]: 63.0 s
- mean latency to find the pedestal, day one of training ([6]; icv, scopolamine 70 nmol, Dihexa 300 pmol, Hinge 300 pmol, vehicle 89.3 s): 115.2 s
- group latency to find the submerged platform ([6]; ip 0.05 mg/kg after scopolamine): not different than the scopolamine group
- group latency to find the submerged platform ([6]; ip 0.25 mg/kg after scopolamine): different than the scopolamine
- group latency to find the submerged platform ([6]; ip 0.50 mg/kg after scopolamine, 0.5 mg/kg): different than the scopolamine; also recorded: not different than the vehicle control group
- time in the target quadrant, day 9 probe trial ([6]; ip delivery, each dose group vs scopolamine→PBS): Each of the treatment groups was different than the scopolamine
- latency to find the pedestal in the water maze (reversal of scopolamine deficits) ([6]; oral 1.25 mg/kg (low dose), days 3-8): partially reversed
- latency to find the pedestal in the water maze (reversal of scopolamine deficits) ([6]; oral 2 mg/kg/day (high dose), 2 mg/kg/day): no different than controls; also recorded: completely overcome the scopolamine deficits; also recorded: completely reversed the scopolamine-dependent learning deficit
- time in the target quadrant, day 9 probe trial ([6]; oral delivery, both dose groups vs scopolamine→PBS): Both of the treatment groups were different than the scopolamine
- protection of neurons from oxidative stress [7]: protects neurons from oxidative stress
- concentration of dihexa in brain regions compared to blood ([8]; 3H/14C ratios): all brain regions concentrated dihexa
- average 3H/14C ratio for blood ([8]; 10 μCi 3H-dihexa and 2 μCi 14C-Inulin, n=4): 1687
- average half-life, Phase I metabolism [9]: 8.49 h
- average intrinsic clearance (Clin) [9]: 2.72 µL/min/mg

- c-Met phosphorylation vs control (aCSF) [5, 11]: increased c-Met phosphorylation
Molecule: HGF: recombinant hepatocyte growth factor (R&D Systems), ligand of c-Met
- c-Met phosphorylation vs control (aCSF) [5, 10]: not statistically different from control treated slices

Source: US20170049843A1, “Hepatocyte Growth Factor Mimics as Therapeutic Agents” (WASHINGTON STATE UNIVERSITY, priority 2011, published 2017)
